From patent US11026426B2, “Oxadiazole and phenol derivatives as antibacterial and/or herbicidal agents” (NORTHERN ILLINOIS RESEARCH FOUNDATION, priority 2017, dated 2021) come the findings set out here.

Data set [1] concerns the target T1, Mycobacterium tuberculosis IspD (MtIspD) (Mycobacterium tuberculosis, UniProt P9WKG9).
T1 sequence (P9WKG9 1-231): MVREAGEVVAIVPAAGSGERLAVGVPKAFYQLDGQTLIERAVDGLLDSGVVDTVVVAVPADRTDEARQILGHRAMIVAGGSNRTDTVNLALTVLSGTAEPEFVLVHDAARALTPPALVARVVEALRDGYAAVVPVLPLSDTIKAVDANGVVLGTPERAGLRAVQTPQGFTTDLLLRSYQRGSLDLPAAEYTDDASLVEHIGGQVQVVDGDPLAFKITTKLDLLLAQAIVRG
Briefly: Thermal shift assay against MtIspD. Format: binding.

The target of data set [2] is Lycopersicon esculentum IspE (LeIspE) (Solanum lycopersicum, UniProt P93841). The data set can be described thus: Thermal shift assay against LeIspE. Type of data set: binding.
Chain of Lycopersicon esculentum IspE (LeIspE) (P93841 89-401): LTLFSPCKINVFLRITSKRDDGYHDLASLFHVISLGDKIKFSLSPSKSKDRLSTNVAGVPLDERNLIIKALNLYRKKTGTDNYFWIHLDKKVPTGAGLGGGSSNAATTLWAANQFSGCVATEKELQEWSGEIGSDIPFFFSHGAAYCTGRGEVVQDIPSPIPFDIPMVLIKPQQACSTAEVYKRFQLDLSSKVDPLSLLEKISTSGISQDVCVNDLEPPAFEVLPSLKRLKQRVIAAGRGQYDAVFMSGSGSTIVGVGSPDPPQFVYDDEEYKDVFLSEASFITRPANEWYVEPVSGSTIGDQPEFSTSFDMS
The subject of data set [3] is lettuce seeds. Briefly: Lettuce leaf assay. Type of data set: in vivo. More on the design: key: 0 (no effect); 5(complete inhibition or bleaching). The note with it: ranking 0-5. In short, it runs like this: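 Qualitative assay: compounds in volatile organic solvent applied to filter paper in a petri dish, solvent evaporated, lettuce seeds and 5 mL water added to give test concentrations. Germination, root development and leaf bleaching scored days 3 and 4, ranked 0 (no effect) to 5 (complete inhibition or bleaching).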

Data set [4] addresses AtIspD (Arabidopsis thaliana, UniProt P69834). Briefly: University of Hamburg photometric enzymatic inhibition assay AtIspD. Format: biochemical. An outline of the steps:
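Coupled photometric assay: 2.4 mU AtIspD with 1 mM (2R,3S)-2,3-dihydroxy-4-oxopentyl phosphate, 2.1 mM CTP, excess IspE (0.4 U), ATP, pyruvate kinase/lactate dehydrogenase and 460 μM NADH. Run in 100 mM Tris-HCl pH 8.0, 10 mM MgCl2, 1 mM DTT, 1.1% DMSO at 27 °C, monitored photometrically.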

Data set [5] concerns the target LeIspE (Solanum lycopersicum, UniProt P93841). Briefly: University of Hamburg photometric enzymatic inhibition assay LeIspE. Format: biochemical, Lycopersicon esculentum. An outline of the steps:
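Photometric coupled assay with pyruvate kinase/lactate dehydrogenase following NADH (460 μM). Mix: 100 mM Tris-HCl pH 8.0, 10 mM MgCl2, 1 mM DTT, 2.5 mM phosphoenolpyruvate, 2 mM ATP, 1 mM 4-diphosphocytidyl-2-C-methylerythritol, 1.1% DMSO, 2.4 mU IspE; incubated at 27° C.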

Data set [6] has as its target AtIspF (Arabidopsis thaliana, UniProt Q9CAK8). The data set can be described thus: University of Hamburg photometric enzymatic inhibition assay AtIspF. Format: biochemical. An outline of the steps:
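Coupled photometric assay (CMP kinase/pyruvate kinase/lactate dehydrogenase, NADH consumption) with 2.4 mU AtIspF and 1 mM 4-diphosphocytidyl-2C-methylerythritol 2-phosphate, 2 mM ATP, in 100 mM Tris-HCl pH 8.0, 10 mM MgCl2, 1.1% DMSO. Monitored at 27 °C.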

In data set [7] the test system is Burkholderia thailandensis. Format: cell-based. The note with it: preliminary screening, score 0-3.
Data set [8] relates to Mycobacterium smegmatis. Briefly: Antibacterial preliminary screening MS. Further: key: 0 represents no inhibition; 3 is comparable to commercial antibiotic control. Type of data set: cell-based. The note with it: score 0-3.
For data set [9], the system named is Corynebacterium xerosis. The data set can be described thus: Antibacterial preliminary screening CX. Further: key: 0 represents no inhibition; 3 is comparable to commercial antibiotic control. As to conditions: score 0-3. Type of data set: cell-based.
The subject of data set [10] is Corynebacterium pseudodiphtheriae. The data set can be described thus: Antibacterial preliminary screening CP.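 Further: 0 is no inhibition and 3 matches the commercial antibiotic control.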 Type of data set: cell-based. The note with it: score 0-3.
Data set [11] concerns Escherichia coli. The data set can be described thus: Antibacterial preliminary screening EC. Further: key: 0 represents no inhibition; 3 is comparable to commercial antibiotic control. Type of data set: cell-based. As to conditions: score 0-3.
The subject of data set [12] is Klebsiella pneumonia. The data set can be described thus: Antibacterial preliminary screening KP. Further: key: 0 represents no inhibition; 3 is comparable to commercial antibiotic control. Type of data set: cell-based. As to conditions: score 0-3.
Data set [13] relates to Micrococcus luteus. The data set can be described thus: Antibacterial preliminary screening ML. Type of data set: cell-based. As to conditions: score 0-3.
For data set [14], the system named is Bacillus cereus. The data set can be described thus: Antibacterial preliminary screening BC. The note with it: score 0-3. Type of data set: cell-based.
For data set [15], the system named is Pseudomonas aeruginosa. Briefly: Antibacterial preliminary screening PA. Format: cell-based. The note with it: for PA score: score 0-3.

Where two headings read alike, the source gives them in different places. Bounds are passed on as bounds.

Chain of LeIspE (P93841 89-401): as above
Chain of AtIspF (Q9CAK8 53-231): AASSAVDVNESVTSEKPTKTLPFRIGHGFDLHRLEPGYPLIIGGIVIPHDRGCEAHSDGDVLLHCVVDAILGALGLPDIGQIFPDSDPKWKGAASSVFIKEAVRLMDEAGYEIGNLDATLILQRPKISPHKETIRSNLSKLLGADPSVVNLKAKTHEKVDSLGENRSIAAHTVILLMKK
Chain of AtIspD (P69834 62-302): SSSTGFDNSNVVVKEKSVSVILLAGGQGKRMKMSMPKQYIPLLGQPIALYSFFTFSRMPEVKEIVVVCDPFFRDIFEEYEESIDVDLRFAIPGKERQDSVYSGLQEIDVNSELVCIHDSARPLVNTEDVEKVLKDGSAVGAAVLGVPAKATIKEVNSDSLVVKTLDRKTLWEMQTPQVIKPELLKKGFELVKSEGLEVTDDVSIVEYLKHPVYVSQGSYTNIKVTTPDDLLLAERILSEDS

What is called IC50 is the point on the concentration scale where inhibition reaches its midpoint. The term melting point denotes the temperature, or range, at which the solid turns liquid. `CCc1nnc(-c2cc3ccccc3[nH]2)o1` [HGN-250, 2-ethyl-5-(1H-indol-2-yl)-1,3,4-oxadiazole] gave a melting point of 138 to 143 °C. Further, in data set [1], the “MtIspD melting point change” value was 0.8 °C and the MtIspD melting temp was determined as 48.8 °C. In [2], the “LeIspE melting point change” value was −2.75 °C and the LeIspE melting temp stood at 46.75 °C. In data set [3] (0.5 mM), the Bleaching is 0, the Germination stood at 1 and the “Root Dev.” value was 0. Moreover, in [3] (1.0 mM), the Bleaching is 0, the Germination is given as 3 and the “Root Dev.” value is 0. For the same compound, the IC50 in data set [4] (read-out: AtIspD IC50) is above 1000 µM. Also, the IC50 in data set [5] (read-out: LeIspE IC50) was above 1000 µM. In addition, the concentration for half-maximal inhibition (IC50) in data set [6] (read-out: AtIspF IC50) is above 1000 µM. Moreover, in data set [7], the BT score is recorded as 0. Moreover, in [8], the MS score is 0. The compound further gave a CX score in data set [9] of 0. This compound had a CP score in [10] of 0. Further, in data set [11], the EC score is listed as 0. In addition, in data set [12], the KP score was determined as 0. This compound gave an ML score in [13] of 0. The BC score in [14] turned out to be 0. In data set [15], this compound displayed a PA score of 0.

The compound `c1ccc2[nH]c(-c3nnc(C4CCCCC4)o3)cc2c1` [HGN-254, 2-cyclohexyl-5-(1H-indol-2-yl)-1,3,4-oxadiazole] returned a melting point of 187 to 193 °C. In data set [1], the “MtIspD melting point change” value was 0.5 °C and the MtIspD melting temp is 48.5 °C. Besides, in data set [2], the “LeIspE melting point change” value was −2.00 °C and the LeIspE melting temp was found to be 47.50 °C. In [3] (0.15 mM), the Bleaching was determined as 0, the Germination worked out at 0 and the “Root Dev.” value stood at 0. Besides, in data set [3] (0.3 mM), the Bleaching is 0, the Germination was 0 and the “Root Dev.” value amounted to 0. The IC50 in [4] (read-out: AtIspD IC50) was found to be 322 µM. For the same compound, in [5] (read-out: LeIspE IC50), the IC50 was above 1000 µM. Also, the IC50 in data set [6] (read-out: AtIspF IC50) is above 1000 µM. For the same compound, the BT score in data set [7] is on record as 0. For the same compound, the MS score in data set [8] is given as 0. The compound further came in with a CX score in data set [9] of 0. The same compound gave a CP score in data set [10] of 0. In data set [11], this compound had an EC score of 0. The compound further yielded a KP score in [12] of 0. The compound further displayed an ML score in data set [13] of 0. The compound also had a BC score in [14] of 0. In data set [15], the PA score is recorded as 0.

`O=[N+]([O-])c1cc(-c2nnc(-c3nc4ccccc4s3)o2)cc([N+](=O)[O-])c1` [HGN-334, 2-(benzo[d]thiazol-2-yl)-5-(3,5-dinitrophenyl)-1,3,4-oxadiazole] yielded a melting point of 180 to 185 °C. In data set [1], the “MtIspD melting point change” value is 0.0 °C and the MtIspD melting temp was 48.0 °C. Also, in [2], the “LeIspE melting point change” value is −1.50 °C and the LeIspE melting temp worked out at 48.00 °C. Further, in data set [3] (0.15 mM), the Bleaching was found to be 0, the Germination is 0 and the “Root Dev.” value worked out at 0. Besides, in data set [3] (0.3 mM), the Bleaching is listed as 0, the Germination came out at 0 and the “Root Dev.” value worked out at 0. Besides, in [4], the IC50 was above 500 µM. Further, the concentration for half-maximal inhibition (IC50) in data set [5] was above 500 µM. Moreover, the IC50 in data set [6] was above 500 µM. Moreover, the BT score in [7] is listed as 0. For the same compound, the MS score in data set [8] is 0. In addition, in [9], the CX score came out at 0. Also, in data set [10], the CP score was determined as 0. The EC score in data set [11] is 0. This compound also yielded a KP score in [12] of 0. For the same compound, the ML score in data set [13] amounted to 0. For the same compound, in data set [14], the BC score was found to be 0. This compound also had a PA score in data set [15] of 0.

Consider `C(=C\c1nnc(-c2nc3ccccc3s2)o1)/c1ccccc1` [HGN-335, (E)-2-(benzo[d]thiazol-2-yl)-5-styryl-1,3,4-oxadiazole], for which the melting point fell in the range of 202 to 204 °C. Besides, in [1], the “MtIspD melting point change” value is 0.5 °C and the MtIspD melting temp worked out at 48.5 °C. Also, in data set [2], the “LeIspE melting point change” value was −1.50 °C and the LeIspE melting temp was 48.00 °C. Also, in data set [3] (0.1 mM), the Bleaching turned out to be 0, the Germination came to 0 and the “Root Dev.” value was determined as 0. In data set [3] (0.2 mM), the Bleaching is on record as 0, the Germination was 0 and the “Root Dev.” value was found to be 0. Also, the IC50 in data set [4] (read-out: AtIspD IC50) was above 500 µM. Further, the IC50 in data set [5] (read-out: LeIspE IC50) is above 500 µM. In addition, the half-maximal inhibitory concentration (IC50) in data set [6] (read-out: AtIspF IC50) is above 500 µM. In data set [7], this compound registered a BT score of 0. The MS score in data set [8] was 0. This compound came in with a CX score in data set [9] of 0. The CP score in data set [10] is 0. Besides, the EC score in data set [11] stood at 0. For the same compound, in [12], the KP score is given as 0. Besides, the ML score in [13] is on record as 0. The compound also gave a BC score in [14] of 0. Also, in data set [15], the “effectiveness against Pseudomonas aeruginosa” value is listed as “slightly effective” and the PA score is recorded as 1.

`COc1ccc(-c2nnc(-c3nc4ccccc4s3)o2)cc1` [HGN-336, 2-(benzo[d]thiazol-2-yl)-5-(4-methoxyphenyl)-1,3,4-oxadiazole] came in with a melting point of 167 to 169 °C. The MtIspD melting temp in data set [1] was 49.5 °C. In data set [2], the “LeIspE melting point change” value was −1.25 °C and the LeIspE melting temp was found to be 48.25 °C. Moreover, in data set [3] (0.15 mM), the Bleaching was 0, the Germination was found to be 1 and the “Root Dev.” value is given as 0. In [3] (0.3 mM), the Bleaching was 0, the Germination came to 0 and the “Root Dev.” value was 0. Further, the 50% inhibitory concentration (IC50) in data set [4] (read-out: AtIspD IC50) is above 500 µM. Moreover, in data set [5] (read-out: LeIspE IC50), the IC50 was 493 ± 49 µM. Moreover, in [6] (read-out: AtIspF IC50), the 50% inhibitory concentration (IC50) is above 500 µM. Further, the BT score in data set [7] was found to be 0. The MS score in [8] is 0. The CX score in data set [9] turned out to be 0. Also, the CP score in data set [10] was found to be 0. In addition, in data set [11], the EC score stood at 0. In data set [12], the KP score is on record as 0. Besides, in data set [13], the ML score stood at 0. In [14], this compound returned a BC score of 0. Further, in data set [15], the PA score is on record as 0.

Compound `FC(F)(F)c1ccc(-c2nnc(-c3nc4ccccc4s3)o2)cc1` [HGN-337, 2-(benzo[d]thiazol-2-yl)-5-(4-(trifluoromethyl)phenyl)-1,3,4-oxadiazole] gave a melting point of 145 to 148 °C. In data set [1], the “MtIspD melting point change” value amounted to 0.8 °C and the MtIspD melting temp was 48.8 °C. In [2], the “LeIspE melting point change” value was −1.75 °C and the LeIspE melting temp was 47.75 °C. Also, in data set [3] (0.15 mM), the Bleaching amounted to 0, the Germination is listed as 0 and the “Root Dev.” value is 0. In data set [3] (0.3 mM), the Bleaching is reported as 0, the Germination is on record as 0 and the “Root Dev.” value came out at 0. For the same compound, the half-inhibitory concentration (IC50) in data set [4] (read-out: AtIspD IC50) was above 500 µM. Besides, in data set [5] (read-out: LeIspE IC50), the IC50 was above 500 µM. The half-inhibitory concentration (IC50) in data set [6] (read-out: AtIspF IC50) is above 500 µM. This compound also returned a BT score in data set [7] of 0. Further, the MS score in data set [8] stood at 0. Further, in data set [9], the CX score was determined as 0. Moreover, the CP score in data set [10] was 0. This compound yielded an EC score in data set [11] of 0. In [12], the KP score came to 0. In data set [13], the ML score stood at 0. The BC score in data set [14] came out at 0. The compound further gave a PA score in [15] of 0.
